pEC50: −log10 of the molar value. Where a SMILES comes first, the peptide text is derived from it. Bridges are numbered along the chain shown (N, C = ends). Roman numbers before positions name the chains, in order. Primed or numbered codes have the meaning given here. Triazole bridges read from a SMILES are 1,4-linked. Where no end group is shown, it is not given here. [ ]: non-standard residue; d: D form. The star is where a group is joined. Biotin = O=C1N[C@H]2[C@H](CS[C@H]2CCCCC(=O)*)N1; Lys(N3) = [N-]=[N+]=NCCCC[C@H](N)C(=O)O; PEG6 = NCCOCCOCCOCCOCCOCCOCCC(=O)O; dPra = C#CC[C@@H](N)C(=O)O; PEG5′ = PEG5 linker
Tests used:
[1] = target: T1, E17K PH Domain binding to PIP3 (Homo sapiens, UniProt P31749, E17K); assay: PIP3 agarose inhibition assay, E17K; format: biochemical; conditions: in words; for inhibition of E17K PH Domain binding to PIP3-coated resin: ligand 2.38 μM (10x protein), protein 234 nM, western blot; for inhibition of E17K PH Domain binding to PIP3 resin, expanded assay: triligand 0.1-1000 eq relative to protein (234 nM)
T1 construct: 2 μg of either wildtype or mutant PH Domain-GFP protein (234 nM); made in house; host or cells: HEK-293-6E (used as cell lysate, not purified)
T1 sequence (P31749 5-108 E17K limits assumed): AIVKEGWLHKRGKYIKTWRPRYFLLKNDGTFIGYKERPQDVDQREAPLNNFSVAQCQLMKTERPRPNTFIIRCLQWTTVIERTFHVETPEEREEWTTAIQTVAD
From the text: (§1) The yleaf ligand, the biligand, and the triligand were all tested for their ability to block the E17K PHD binding with PIP3. For this test, PIP3-coated resin (Echelon Biosciences) was used to mimic the PHD interaction with the cell membrane, and could be used to bind the protein as in an immunoprecipitation assay^22. The presence of an effective blocking compound would reduce the ability of the resin to capture the protein, and would thus appear as a diminished signal in the corresponding western blot assay. A control lane containing no capture agent was used to show baseline binding of the protein to the PIP3 resin. […] In an expanded study, we compared the amount of E17K and WT PH domain binding relative to the amount of added triligand (FIG. 5e).
PIP3 Agarose beads (Echelon) were used to detect for the inhibition of PH Domain binding to its substrate, PIP3, upon incubation with the anchor candidate peptide ligands. To test the inhibition of each of the ligands, anchor biligand and triligand, 20 μL of resin slurry was added to each of four tubes and washed three times with 1×TBS. Protein, 2 μg (234 nM) of E17K mutant, was preincubated for one hour at room temperature with either DMSO (no protein blank), anchor, biligand or triligand at 2.38 μM (10× in relation to protein) in 200 μL of 1×TBS. For the control, mutant PH Domain was incubated with 1×TBS and 1 μL […] to mimic the ligand conditions. These protein samples were then added to PIP3 agarose in a Spin-X tube and incubated at room temperature for two hours. The resin was washed three times with 1×TBS with 0.25% IGEPAL CA-630, spun out to dry completely, then denatured with 50 μL 3×SDS gel loading buffer for 10 min at 95° C. The gel loading buffer was spun out of the resin and detected via western blot as per the Streptavidin-Agarose Pulldowns. Inhibition was indicated by a decrease in the amount of PH Domain that was pulled down by the resin.
(§2) Expanded inhibition blots with either WT of E17K mutant protein were performed in a similar fashion. Twelve tubes of 20 μL of PIP3 agarose were washed three times with 1×TBS. 2 μg of either wildtype or mutant PH Domain-GFP protein (234 nM) in 200 uL 1×TBS were preincubated for 30 minutes with differing concentrations of triligand: 0.1 eq (23.4 nM), 1 eq (234 nM), 10 eq (2.34 μM), 100 eq (23.4 μM), and 1000 eq (234 μM). The protein and triligand solutions were then incubated with the PIP3 resin for 2 hours at room temperature. The resins were washed, eluted, and blotted as per all PH Domain western blots.

[2] = target: T2, WT PH Domain binding to PIP3 (Homo sapiens, UniProt P31749); assay: PIP3 agarose inhibition assay, WT; format: biochemical; conditions: triligand 0.1-1000 eq relative to protein (234 nM), in words
T2 construct: 2 μg of either wildtype or mutant PH Domain-GFP protein (234 nM); made in house; host or cells: HEK-293-6E (used as cell lysate, not purified)
T2 sequence (P31749 5-108 limits assumed): as the sequence (P31749 5-108 E17K limits assumed) above, with K13E counted along it
From the text: as §1, §2

[3] = system: E17K Akt1 relative to E17K Akt2; assay: Point ELISA for triligand binding to Akt1 and Akt2 wildtype and E17K mutant; conditions: protein 100 nM, immobilized triligand, in words
Protocol: These assays were conducted to test the binding of the triligand to the off-target Akt2 wildtype and mutant proteins. For this assay, all samples were taken in triplicate for statistical purposes. Triligand peptide was first immobilized onto neutravdin ELISA plates (Pierce) for one hour. A scrambled anchor peptide, eflya, was used as the no-ligand blank, as the GST proteins has significant background binding to a blank neutravidin plate. The plates were then blocked with 5% BSA overnight. Protein was laid down at a concentration of 100 nM for samples wells and the blank, scrambled peptide wells. GST protein alone (Abcam) was also incubated with the triligand and scrambled peptide as a control. The proteins were incubated for one hour, then washed three times with 1×TBST. The protein was then detected with 1:10,000 anti-GST mouse mAb (Fisher, #MA4-004) for one hour, washed three times with 1×TBST and developed with a 1:1 mixture of TMB substrate for ten minutes. The samples were plotted by subtracting the blanks and averaging the sample wells. The highest signal was considered 100% binding, and the other samples were normalized accordingly.

[4] = target: T3, E17K GST-PH Domain (E17K Akt1) (Homo sapiens, UniProt P31749, E17K); assay: Full curve ELISA, immobilized ligand, E17K protein; format: binding
T3 construct: The first 124 N-terminal amino acids from full length Akt1 were used as the PH Domain DNA; GST (N); thrombin cleavage site (C); 6His (C); made in house; host or cells: E. coli BL21-DE3-pLys
T3 sequence (P31749 1-124 E17K): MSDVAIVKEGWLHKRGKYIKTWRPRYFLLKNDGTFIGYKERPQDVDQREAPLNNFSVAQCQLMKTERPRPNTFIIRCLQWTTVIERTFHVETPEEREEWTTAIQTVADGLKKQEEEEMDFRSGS
Protocol: The full curve ELISAs were obtained using streptavidin coated ELISA plates (Pierce). The ligands—anchor, biligand, triligand and “eflya” scrambled anchor peptide blank—were laid down at a concentration of 1 μM for one hour. Two lanes of each ligand were used on the plate for both proteins—WT and E17K GST-PH Domain. The plates were blocked with 5% BSA for two hours. Dilutions of both WT and E17K GST-PH Domain proteins were made in 0.5% BSA in 1×TBS starting from 1 μM-0.5 nM by serially diluting 1:2 down a series of 8 samples. For each ligand, a no protein blank was also used. The proteins were incubated with the blocked plate for one hour, washed 3× with 1×TBST+0.5% BSA and tapped dry, then detected with a 1:10,000 dilution of an HRP conjugated anti-GST pAb. The plate was again washed 3× with 1×TBST and tapped dry. It was developed with a 1:1 solution of TMB substrate and development was stopped with 1M H2SO4 and read on a plate reader.

Compound	inhibition of E17K PH Domain binding to PIP3-coated resin [1]	inhibition of E17K PH Domain binding to PIP3 resin, expanded assay [1]	inhibition of WT PH Domain binding to PIP3 resin, expanded assay [2]	preference for E17K Akt1 relative to E17K Akt2 [3]	change in binding affinity for the E17K protein versus the preceding ligand (ELISA) ([4]; in words)	selectivity for E17K Akt1 relative to WT Akt1 (ELISA) ([4]; in words)	selectivity for E17K Akt1 relative to WT Akt1 (ELISA) ([4]; in words, listed as ivdae)	pEC50 ([4]; ligand immobilized at 1 μM on streptavidin plate, Hill fit with common saturation and slope, read-out: EC50 for the E17K Akt1 from ELISA binding curves)
triligand 8: form of the ivdae-yleaf-yksy triligand used in PIP3 inhibition assays (peptide 1 {Biotin-PEG5′}-[dI][dV][dD][dA][dE]; peptide 2 [dY][dL][dE][dA][dF]; peptide 3 [dY][dK][dS][dY]; not fully specified (N-terminus, C-terminus); also: triazole to a chain's N/C-terminus via Pra/Lys(N3), triazole to a chain's N/C-terminus via Pra/Lys(N3))	decreased binding of the protein	significant inhibition	little inhibition of this protein					
CC[C@@H](C)[C@@H](NC(=O)CCOCCOCCOCCOCCOCCOCCNC(=O)CCCC[C@@H]1SC[C@@H]2NC(=O)N[C@@H]21)C(=O)N[C@@H](C(=O)N[C@H](CC(=O)O)C(=O)N[C@H](C)C(=O)N[C@H](CCC(=O)O)C(=O)N[C@H](Cc1cn(CCCC[C@H](NC(C)=O)C(=O)N[C@H](Cc2ccc(O)cc2)C(=O)N[C@H](CC(C)C)C(=O)N[C@H](CCC(=O)O)C(=O)N[C@H](C)C(=O)N[C@H](Cc2ccccc2)C(=O)N[C@H](Cc2cn(CCCC[C@H](NC(C)=O)C(=O)N[C@H](Cc3ccc(O)cc3)C(=O)N[C@H](CCCCN)C(=O)N[C@H](CO)C(=O)N[C@H](Cc3ccc(O)cc3)C(N)=O)nn2)C(=O)O)nn1)C(=O)O)C(C)C [triligand] (I: Ac-[Lys(N3)][dY][dL][dE][dA][dF][dPra]-OH / II: {Biotin-PEG6}-[dI][dV][dD][dA][dE][dPra]-OH / III: Ac-[Lys(N3)][dY][dK][dS][dY]-NH2; triazole I:1-II:6, I:7-III:1; N-terminus assumed)	exhibited the ability to block the PHD-PIP3 interaction, with the triligand being the most effective	significant selective inhibition of the E17K mutant relative to the WT		slight preference for E17K Akt1 relative to E17K Akt2	does not show an affinity increase for the E17K protein	largely recovered	maintains the selectivity over the WT protein	7.35
